Activity calls are given as the source filed them. The rule behind the calls is not given here.
Legend:
Rattus norvegicus [1] = test: Inhibition of effort-related effects of TBZ in Harlan Sprague Dawley rat assessed as increase in TBZ-induced lever presses at 80 to 160 mg/kg, po administered 2 hrs prior to testing followed by TBZ addition at 90 mins prior to testing measured for 30 mins; type: functional, organism-based
Rattus norvegicus [2] = test: Inhibition of effort-related effects of TBZ in Harlan Sprague Dawley rat assessed as decrease in TBZ-induced chow intake at 80 to 160 mg/kg, po administered 2 hrs prior to testing followed by TBZ addition at 90 mins prior to testing measured for 30 mins; type: functional, organism-based
Rattus norvegicus [3] = test: Inhibition of effort-related effects of TBZ in Harlan Sprague Dawley rat assessed as increase in TBZ-induced lever presses at 160 mg/kg, po administered 3 hrs prior to testing followed by coadministration with TBZ at 90 mins prior to testing measured for 30 mins; type: functional, organism-based
Rattus norvegicus [4] = test: Inhibition of effort-related effects of TBZ in Harlan Sprague Dawley rat assessed as decrease in TBZ-induced chow intake at 160 mg/kg, po administered 3 hrs prior to testing followed by coadministration with TBZ at 90 mins prior to testing measured for 30 mins; type: functional, organism-based
Rattus norvegicus [5] = test: Inhibition of effort-related effects of TBZ in 90 mins TBZ pretreated Harlan Sprague Dawley rat assessed as increase in TBZ-induced lever presses at 4 to 8 microg, icv administered via chronic indwelling cannulae 20 mins prior to testing measured for 30 mins; type: functional, organism-based
Rattus norvegicus [6] = test: Inhibition of effort-related effects of TBZ in 90 mins TBZ pretreated Harlan Sprague Dawley rat assessed as decrease in TBZ-induced chow intake at 4 to 8 microg, icv administered via chronic indwelling cannulae 20 mins prior to testing measured for 30 mins; type: functional, organism-based
Rattus norvegicus [7] = test: Ratio of compound effect for TBZ-induced lever presses in icv administered Harlan Sprague Dawley rat to compound effect for TBZ-induced lever presses in orally administered Harlan Sprague Dawley rat; type: functional
Rattus norvegicus [8] = test: Ratio of compound effect for TBZ-induced chow intake in icv administered Harlan Sprague Dawley rat to compound effect for TBZ-induced chow intake in orally administered Harlan Sprague Dawley rat; type: functional

SMILES: COc1cc(/C=C/C(=O)CC(=O)/C=C/c2ccc(O)c(OC)c2)ccc1O [CURCUMIN]
- inhibition (Rattus norvegicus [1]): inactive
- inhibition (Rattus norvegicus [2]): inactive
- inhibition (Rattus norvegicus [3]): Active
- inhibition (Rattus norvegicus [4]): Active
- inhibition (Rattus norvegicus [5]): Active
- inhibition (Rattus norvegicus [6]): Active
- Ratio (Rattus norvegicus [7]): >1000
- Ratio (Rattus norvegicus [8]): >1000
